# Test results reported in PubChem BioAssay AID330 (DTP/NCI, 2004).
# “And” between values parts separate entries of the source, which are not always exact repeats. Equal entries are not always repeated. Toxic doses and inconclusive results are not listed.
# Tested on: P388 leukemia ip, CD2F1 mice, survival T/C
# Test: NCI In Vivo Anticancer Drug Screen. Data for tumor model P388 Leukemia (intraperitoneal) in CD2F1 (CDF1) mice
# Details: endpoint: median survival time, higher = longer survival
# Summary of the method: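 Mice carrying the transplanted tumor received test compound or vehicle. Survival was recorded in each group, and the value is the treated-group measurement divided by that of the vehicle-treated control group.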
# [1] = dose: 50.0 mg/kg/injection, schedule: Q01DX005 (ip), vehicle: Klucel (hydroxypropylcellulose) (HPC)
# [2] = dose: 50.0 mg/kg/injection, schedule: Q01DX005 (ip), vehicle: saline with Tween-80
# [3] = dose: 50.0 mg/kg/injection, schedule: Q01DX009 (ip), vehicle: saline with Tween-80
# [4] = dose: 100.0 mg/kg/injection, schedule: Q01DX009 (ip), vehicle: saline with Tween-80
# [5] = dose: 200.0 mg/kg/injection, schedule: Q01DX009 (ip), vehicle: saline with Tween-80
# [6] = dose: 100.0 mg/kg/injection, schedule: Q04DX002 (ip), vehicle: Klucel (hydroxypropylcellulose) (HPC)
# [7] = dose: 50.0 mg/kg/injection, schedule: Q01DX009 (ip), vehicle: saline
# [8] = dose: 100.0 mg/kg/injection, schedule: Q01DX009 (ip), vehicle: saline
# [9] = dose: 12.5 mg/kg/injection, schedule: Q01DX009 (ip), vehicle: saline
# [10] = dose: 25.0 mg/kg/injection, schedule: Q01DX009 (ip), vehicle: saline
# [11] = dose: 25.0 mg/kg/injection, schedule: Q01DX009 (ip), vehicle: water
# [12] = dose: 25.0 mg/kg/injection, schedule: Q01DX009 (ip), vehicle: saline with Tween-80
structure (smiles),measurement,setting,value
COc1cc2c(cc1OC)OC(C)(C)C=C2,T/C,"dose: 6.87 mg/kg/injection, schedule: Q01DX009 (ip), vehicle: saline with Tween-80",106 % of control
same,T/C,"dose: 13.75 mg/kg/injection, schedule: Q01DX009 (ip), vehicle: saline with Tween-80",98 % of control
same,T/C,"dose: 27.5 mg/kg/injection, schedule: Q01DX009 (ip), vehicle: saline with Tween-80",108 % of control
same,T/C,"dose: 55.0 mg/kg/injection, schedule: Q01DX009 (ip), vehicle: saline with Tween-80",102 % of control
N#CC1=C(O)NC(O)=C(C#N)C12C(=O)Nc1ccccc12,T/C,[1],98 % of control
same,T/C,[2],104 % of control
same,T/C,"dose: 100.0 mg/kg/injection, schedule: Q01DX005 (ip), vehicle: Klucel (hydroxypropylcellulose) (HPC)",101 % of control
same,T/C,"dose: 100.0 mg/kg/injection, schedule: Q01DX005 (ip), vehicle: saline with Tween-80",104 % of control
same,T/C,"dose: 200.0 mg/kg/injection, schedule: Q01DX005 (ip), vehicle: Klucel (hydroxypropylcellulose) (HPC)",99 % of control
same,T/C,"dose: 200.0 mg/kg/injection, schedule: Q01DX005 (ip), vehicle: saline with Tween-80",104 % of control
CCC(C)C(=O)/C=C/c1ccc(Cl)c(Cl)c1 (stereo not drawn),T/C,[3],99 % of control
same,T/C,[4],99 % of control
same,T/C,[5],99 % of control
COc1cccc2c1C(=O)c1c(O)c3c(c(O)c1C2=O)C[C@@H](C(C)=O)C[C@@H]3OC1CC(N)C(O)C(C)O1 (stereo partly drawn),T/C,"dose: 6.25 mg/kg/injection, schedule: Q04DX003 (ip), vehicle: water",109 % of control
same,T/C,"dose: 12.5 mg/kg/injection, schedule: Q04DX003 (ip), vehicle: water",120 % of control
same,T/C,"dose: 25.0 mg/kg/injection, schedule: Q04DX003 (ip), vehicle: water",113 % of control
same,T/C,"dose: 50.0 mg/kg/injection, schedule: Q04DX003 (ip), vehicle: water",120 % of control
same,T/C,"dose: 100.0 mg/kg/injection, schedule: Q04DX003 (ip), vehicle: water",93 % of control
Cc1nnc(Cc2ccc([N+](=O)[O-])cc2)c2n[nH]c(C)c12,T/C,"dose: 25.0 mg/kg/injection, schedule: Q01DX001 (ip), vehicle: Klucel (hydroxypropylcellulose) (HPC)",104 % of control
same,T/C,"dose: 50.0 mg/kg/injection, schedule: Q01DX001 (ip), vehicle: Klucel (hydroxypropylcellulose) (HPC)",102 % of control
same,T/C,"dose: 100.0 mg/kg/injection, schedule: Q01DX001 (ip), vehicle: Klucel (hydroxypropylcellulose) (HPC)",109 % of control
same,T/C,[6],90 % of control
CCOC(=O)Nc1ccc2nc(Sc3ccc(Cl)cc3)sc2c1,T/C,[3],103 % of control
same,T/C,[4],100 % of control
same,T/C,[5],106 % of control
O=C(c1ccccc1)C(CN1CCCC1)CN1CCCC1,T/C,"dose: 12.5 mg/kg/injection, schedule: Q01DX005 (ip), vehicle: saline",100 % of control
same,T/C,"dose: 25.0 mg/kg/injection, schedule: Q01DX005 (ip), vehicle: saline",97 % of control
same,T/C,"dose: 50.0 mg/kg/injection, schedule: Q01DX005 (ip), vehicle: saline",100 % of control and 102 % of control
CCCCCCCOCC(=O)O,T/C,[3],100 % of control
same,T/C,[4],94 % of control
CC(=O)O.CC(=O)O.CC(=O)O.CC(=O)O.[Rh].[Rh],T/C,"dose: 1.56 mg/kg/injection, schedule: Q01DX009 (ip), vehicle: Klucel (hydroxypropylcellulose) (HPC)",111 % of control
same,T/C,"dose: 3.13 mg/kg/injection, schedule: Q01DX009 (ip), vehicle: Klucel (hydroxypropylcellulose) (HPC)",117 % of control
same,T/C,"dose: 6.25 mg/kg/injection, schedule: Q01DX009 (ip), vehicle: Klucel (hydroxypropylcellulose) (HPC)",99 % of control
same,T/C,"dose: 6.25 mg/kg/injection, schedule: Q04DX003 (ip), vehicle: saline",100 % of control
same,T/C,"dose: 12.5 mg/kg/injection, schedule: Q01DX009 (ip), vehicle: Klucel (hydroxypropylcellulose) (HPC)",115 % of control
same,T/C,"dose: 12.5 mg/kg/injection, schedule: Q04DX003 (ip), vehicle: saline",100 % of control
same,T/C,"dose: 25.0 mg/kg/injection, schedule: Q04DX003 (ip), vehicle: saline",122 % of control
Nc1ncncc1-c1ccc(F)cc1,T/C,[7],103 % of control
same,T/C,[8],101 % of control
C=CC(=O)NCC(=O)O,T/C,[7],100 % of control
same,T/C,[8],103 % of control
same,T/C,"dose: 200.0 mg/kg/injection, schedule: Q01DX009 (ip), vehicle: saline",109 % of control
COc1c(C)c(O)c2c(c1O)/C(=C/N=NC(N)=S)C(Cl)=N2,T/C,"dose: 100.0 mg/kg/injection, schedule: Q01DX001 (ip), vehicle: saline with Tween-80",103 % of control
same,T/C,"dose: 200.0 mg/kg/injection, schedule: Q01DX001 (ip), vehicle: saline with Tween-80",103 % of control
same,T/C,"dose: 400.0 mg/kg/injection, schedule: Q01DX001 (ip), vehicle: saline with Tween-80",96 % of control
CC1CCC(C)N1CCCCN1C(C)CCC1C (stereo not drawn),T/C,"dose: 3.13 mg/kg/injection, schedule: Q01DX009 (ip), vehicle: saline",104 % of control and 97 % of control
same,T/C,"dose: 6.25 mg/kg/injection, schedule: Q01DX009 (ip), vehicle: saline",100 % of control and 104 % of control
same,T/C,[9],100 % of control and 106 % of control
same,T/C,[10],96 % of control
C[C@]12CCCC[C@@H]1CC[C@@H]1[C@@H]2[C@@H](O)C[C@@]2(C)[C@H]1CC[C@]2(C)O,T/C,"dose: 100.0 mg/kg/injection, schedule: Q04DX003 (ip), vehicle: saline with Tween-80",100 % of control
same,T/C,"dose: 200.0 mg/kg/injection, schedule: Q04DX003 (ip), vehicle: saline with Tween-80",100 % of control
O=c1cc[nH]c(=O)o1,T/C,"dose: 6.25 mg/kg/injection, schedule: Q01DX009 (ip), vehicle: water",108 % of control
same,T/C,"dose: 12.5 mg/kg/injection, schedule: Q01DX009 (ip), vehicle: water",119 % of control
same,T/C,[11],124 % of control
same,T/C,"dose: 50.0 mg/kg/injection, schedule: Q01DX009 (ip), vehicle: water",121 % of control
COC(=O)C1(C)CCCC2(C)c3cc(OC)ccc3C(=O)C(Br)C12 (stereo not drawn),T/C,[3],103 % of control
same,T/C,[4],100 % of control
same,T/C,[5],112 % of control
Cc1c([O-])[n+](Cc2ccccc2)nn1C,T/C,[11],89 % of control
N=C(N)n1c(N)nc2ccccc2c1=O,T/C,"dose: 12.0 mg/kg/injection, schedule: Q01DX005 (ip), vehicle: Klucel (hydroxypropylcellulose) (HPC)",108 % of control
same,T/C,"dose: 12.5 mg/kg/injection, schedule: Q01DX005 (ip), vehicle: saline with Tween-80",100 % of control
same,T/C,"dose: 25.0 mg/kg/injection, schedule: Q01DX005 (ip), vehicle: Klucel (hydroxypropylcellulose) (HPC)",101 % of control
same,T/C,"dose: 25.0 mg/kg/injection, schedule: Q01DX005 (ip), vehicle: saline with Tween-80",104 % of control
same,T/C,[1],121 % of control
same,T/C,[2],97 % of control
CCN(CC)N=Nc1ccccc1-c1nc(N)c2ccccc2n1,T/C,"dose: 12.5 mg/kg/injection, schedule: Q04DX003 (ip), vehicle: Klucel (hydroxypropylcellulose) (HPC)",105 % of control
same,T/C,"dose: 25.0 mg/kg/injection, schedule: Q04DX003 (ip), vehicle: Klucel (hydroxypropylcellulose) (HPC)",102 % of control and 103 % of control and 94 % of control
same,T/C,"dose: 50.0 mg/kg/injection, schedule: Q04DX003 (ip), vehicle: Klucel (hydroxypropylcellulose) (HPC)",98 % of control and 111 % of control and 91 % of control
same,T/C,"dose: 100.0 mg/kg/injection, schedule: Q04DX003 (ip), vehicle: Klucel (hydroxypropylcellulose) (HPC)",102 % of control (2×) and 94 % of control
same,T/C,"dose: 200.0 mg/kg/injection, schedule: Q04DX003 (ip), vehicle: Klucel (hydroxypropylcellulose) (HPC)",106 % of control and 119 % of control and 86 % of control
O=C(O)c1cc2c([N+](=O)[O-])cccc2[se]1,T/C,[9],100 % of control
same,T/C,[10],100 % of control
same,T/C,[7],94 % of control and 97 % of control
O=CNc1ccc2c(c1)Cc1cc(Br)ccc1-2,T/C,[12],93 % of control
same,T/C,[3],98 % of control
same,T/C,[4],93 % of control
same,T/C,[5],88 % of control
CC(NNC(=S)N1CCN(c2ccccn2)CC1)c1nccc2ccccc12 (stereo not drawn),T/C,"dose: 12.5 mg/kg/injection, schedule: Q04DX002 (ip), vehicle: Klucel (hydroxypropylcellulose) (HPC)",100 % of control
same,T/C,"dose: 25.0 mg/kg/injection, schedule: Q04DX002 (ip), vehicle: Klucel (hydroxypropylcellulose) (HPC)",100 % of control
same,T/C,"dose: 50.0 mg/kg/injection, schedule: Q04DX002 (ip), vehicle: Klucel (hydroxypropylcellulose) (HPC)",103 % of control
same,T/C,[6],122 % of control and 124 % of control
same,T/C,"dose: 200.0 mg/kg/injection, schedule: Q04DX002 (ip), vehicle: Klucel (hydroxypropylcellulose) (HPC)",96 % of control
CC1SC(=O)NN=C1c1ccccc1 (stereo not drawn),T/C,[3],94 % of control
same,T/C,[4],97 % of control
same,T/C,[5],106 % of control
COc1cc2c(c(OC)c1OC)-c1ccc(SC)c(=O)cc1C(NC(=S)NC1OCC(OC(C)=O)C(OC(C)=O)C1OC(C)=O)CC2 (stereo not drawn),T/C,[12],178 % of control and 184 % of control
same,T/C,[3],200 % of control and 191 % of control
same,T/C,[4],93 % of control and 101 % of control
